Data set [1] concerns panel of over 450 kinases. Briefly: SelectScreen kinase selectivity profiling, full panel. It counts as biochemical. The procedure:
(§1) Off-target kinase activity was performed using the SelectScreen kinase profiling service against either mini 50 kinase or full 450 kinase panels using the Z’lyte and Adapta kinase activity platforms (performed by Thermofisher).

Data set [2] can be described thus: Kinetic solubility assay. The format is physicochemical. The following applies: PBS buffer, pH 7.4, aqueous buffer, kinetic from dmso stock, PBS pH 7.4; read-out: Kinetic solubility pH7.4. The procedure:
Compound solubility was tested in Dulbecco A PBS buffer at pH7.4 in Millipore MultiScreen Solubility Filter plates. Analysis was carried out on a Bioteck Synergy 4 plate reader (240–400 nm) and solubility quantified against a 5-point calibration curve.

Data set [3] concerns the target CYP 2D6 (Homo sapiens, UniProt P10635). Briefly: CYP2D6 inhibition. It counts as in vitro ADME.
Data set [4] has as its target T1, AKT2 (Homo sapiens, UniProt P31751).
T1 construct: purchased Signal Chem
Briefly: AKT2 biochemical kinase assay (FP iMAP). The procedure: (§2) Biochemical analysis was performed using kinases obtained from Millipore (AKT1, ∆AKT1, ∆AKT2, ∆AKT3) and Signal Chem (AKT2 and AKT3). […] (Molecular Devices) against the three isoforms of AKT and their PH domain null mutants. Compounds were dissolved in DMSO prior to screening at 14 point titration series in the range (50 µM–50 pM). Fluorescence polarisation was measured using a Biotek Synergy 4 Hybrid microplate reader. Percentage inhibition of kinase activity was calculated and IC50 values derived using non-linear regression on GraphPad Prism. Competition of ALM301 with ATP was determined using AKT1 under increasing ATP concentrations up to 1000 µM.

Data set [5] deals with T2, AKT3 (Homo sapiens, UniProt Q9Y243).
T2 construct: purchased Signal Chem
T2 sequence (Q9Y243 whole entry): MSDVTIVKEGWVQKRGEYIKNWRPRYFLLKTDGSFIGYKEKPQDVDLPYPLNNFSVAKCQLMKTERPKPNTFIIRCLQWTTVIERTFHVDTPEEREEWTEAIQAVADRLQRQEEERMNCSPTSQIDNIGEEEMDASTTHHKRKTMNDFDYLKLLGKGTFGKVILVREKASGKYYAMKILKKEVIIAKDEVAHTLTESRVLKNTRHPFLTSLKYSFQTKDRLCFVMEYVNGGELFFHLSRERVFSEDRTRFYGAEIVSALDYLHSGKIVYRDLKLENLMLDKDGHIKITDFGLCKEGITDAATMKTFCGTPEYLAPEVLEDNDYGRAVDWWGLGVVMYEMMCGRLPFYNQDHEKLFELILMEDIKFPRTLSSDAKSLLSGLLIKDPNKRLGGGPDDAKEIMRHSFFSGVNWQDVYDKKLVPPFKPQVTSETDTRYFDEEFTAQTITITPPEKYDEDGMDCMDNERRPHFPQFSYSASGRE
Nature of the data set: AKT3 biochemical kinase assay (FP iMAP). The procedure:
as §2

Data set [6] concerns the target CYP 2C19 (Homo sapiens, UniProt P33261). Briefly: CYP2C19 inhibition. It counts as in vitro ADME.
Data set [7] addresses PDK1 (Homo sapiens, UniProt O15530). Nature of the data set: SelectScreen kinase selectivity profiling, PDK1. The format is biochemical. The procedure: as §1
The target in data set [8] is CYP 2C9 (Homo sapiens, UniProt P11712). Nature of the data set: CYP2C9 inhibition. It counts as in vitro ADME.
CYP 2C9, sequence (P11712 whole entry, the tested form may be a part): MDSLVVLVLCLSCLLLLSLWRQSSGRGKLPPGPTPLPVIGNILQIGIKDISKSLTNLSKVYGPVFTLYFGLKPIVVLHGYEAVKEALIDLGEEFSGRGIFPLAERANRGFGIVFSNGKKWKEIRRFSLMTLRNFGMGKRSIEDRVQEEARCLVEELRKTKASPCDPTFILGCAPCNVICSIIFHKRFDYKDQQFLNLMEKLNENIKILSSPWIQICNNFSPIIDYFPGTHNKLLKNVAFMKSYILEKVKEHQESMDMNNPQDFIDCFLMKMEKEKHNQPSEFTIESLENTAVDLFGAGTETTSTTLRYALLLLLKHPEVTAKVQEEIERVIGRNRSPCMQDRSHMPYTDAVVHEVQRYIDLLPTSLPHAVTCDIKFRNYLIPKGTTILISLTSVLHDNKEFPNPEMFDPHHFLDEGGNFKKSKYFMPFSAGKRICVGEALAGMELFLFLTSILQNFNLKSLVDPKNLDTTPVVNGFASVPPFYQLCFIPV
Data set [9] relates to ∆AKT2. Briefly: PH domain null AKT2 biochemical kinase assay (FP iMAP). The procedure:
Biochemical analysis was performed using kinases obtained from Millipore (AKT1, ∆AKT1, ∆AKT2, ∆AKT3) and Signal Chem (AKT2 and AKT3). The specific activity of AKT 1,2 and 3 was determined to be 114 nmol/min/mg, 44 nmol/min/mg and 200 nmol/min/mg respectively as per activity assay protocol. ALM301 was profiled using the Fluorescent Polarisation (FP) iMAP Screening Express kit (Molecular Devices) using the FAM-Crosstide substrate [5FAM-[…]-OH] (Molecular Devices) against the three isoforms of AKT and their PH domain null mutants. Compounds were dissolved in DMSO prior to screening at 14 point titration series in the range (50 µM–50 pM). Fluorescence polarisation was measured using a Biotek Synergy 4 Hybrid microplate reader. Percentage inhibition of kinase activity was calculated and IC50 values derived using non-linear regression on GraphPad Prism. Competition of ALM301 with ATP was determined using AKT1 under increasing ATP concentrations up to 1000 µM.

Data set [10] is described as follows: Pharmacokinetic study in Sprague–Dawley rats. It counts as in vivo, rat. The following applies: male SD rats. The procedure:
Eight rats were purchased and 6 used on the PK study (3 per administration route). The remaining rats were purchased in case of mis-dosing events and were used to obtain blank biological matrix. Compounds were administered as single i.v. doses at 1 mg free base/kg or single oral doses at 5 mg free base/kg, with blood samples obtained from three rats per dose route, at 9 time-points out to 24 h post-dose. Both the intravenous and oral doses were prepared at a concentration of 1 mg free base/mL in a mixture of 5% DMSO/95% saline. Blood samples were centrifuged to give plasma. Plasma proteins were precipitated, and compounds extracted by addition of six volumes of acetonitrile containing warfarin as internal standard. Samples were centrifuged at 4000 rpm for 30 min and the supernatants were analysed on a Waters Xevo TQ mass spectrometer. Multiple Reaction Monitoring (MRM) methods were developed for each test compound using Waters IntelliStart software.
Quantification of test compounds was by extrapolation from calibration lines prepared in control rat plasma and analysed concurrently with experimental samples.
Non-compartmental analysis was performed using the software package PK Solutions 2.0 from Summit Research Services to produce the PK parameters. AUC values were calculated by the trapezoidal method.
Oral bioavailability was estimated by comparison of the drug concentration/time AUCs for individual animals after oral dosing with the mean AUC from i.v. doses.

Data set [11] can be described thus: LogD7.4 assay. The following applies: octanol/PBS buffer; octanol/PBS pH 7.4. The format is physicochemical. The procedure:
Compounds (100 µM) were shaken at 300 rpm at room temperature for 4 h in a biphasic system of octanol and PBS buffer pH 7.4 in a 96-well plate in triplicate. The relative drug concentration in each phase was then determined by the peak area measurement from LC-UV analysis on an Agilent 1260 chromatography instrument (UV detection at 254 nm and 220 nm). LogD is calculated as follows: LogD = Log[peak area of compound in octanol x injection volume of buffer phase/peak area of compound in buffer x injection volume of octanol phase].

Where two headings read alike, the source gives them in different places.

T1 sequence (P31751 whole entry): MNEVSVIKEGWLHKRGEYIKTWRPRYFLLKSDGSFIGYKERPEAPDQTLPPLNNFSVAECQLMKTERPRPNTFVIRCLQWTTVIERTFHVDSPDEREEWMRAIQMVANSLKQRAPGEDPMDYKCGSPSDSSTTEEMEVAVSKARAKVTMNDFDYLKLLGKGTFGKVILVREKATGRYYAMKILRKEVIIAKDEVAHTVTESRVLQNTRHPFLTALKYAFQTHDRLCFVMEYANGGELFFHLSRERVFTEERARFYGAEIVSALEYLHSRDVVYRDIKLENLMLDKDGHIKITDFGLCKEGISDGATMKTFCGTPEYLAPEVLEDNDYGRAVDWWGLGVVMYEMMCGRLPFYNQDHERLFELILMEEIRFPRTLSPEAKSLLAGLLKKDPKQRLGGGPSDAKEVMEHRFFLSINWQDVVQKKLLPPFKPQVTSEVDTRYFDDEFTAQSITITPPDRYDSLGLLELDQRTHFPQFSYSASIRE
PDK1, sequence (O15530 whole entry): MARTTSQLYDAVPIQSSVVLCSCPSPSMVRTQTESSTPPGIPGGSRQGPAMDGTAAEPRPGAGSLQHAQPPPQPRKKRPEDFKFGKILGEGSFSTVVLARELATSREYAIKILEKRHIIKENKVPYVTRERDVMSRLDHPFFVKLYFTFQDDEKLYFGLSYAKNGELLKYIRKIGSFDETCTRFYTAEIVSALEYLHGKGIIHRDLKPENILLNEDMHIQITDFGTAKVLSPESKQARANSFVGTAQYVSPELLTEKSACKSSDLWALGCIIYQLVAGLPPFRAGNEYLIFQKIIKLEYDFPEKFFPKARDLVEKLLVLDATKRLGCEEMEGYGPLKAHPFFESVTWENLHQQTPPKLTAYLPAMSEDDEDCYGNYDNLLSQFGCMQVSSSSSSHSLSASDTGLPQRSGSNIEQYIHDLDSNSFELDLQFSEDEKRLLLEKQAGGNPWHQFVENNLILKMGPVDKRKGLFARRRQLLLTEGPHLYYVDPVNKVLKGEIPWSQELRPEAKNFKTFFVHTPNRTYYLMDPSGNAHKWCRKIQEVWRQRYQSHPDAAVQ
CYP 2C19, sequence (P33261 whole entry): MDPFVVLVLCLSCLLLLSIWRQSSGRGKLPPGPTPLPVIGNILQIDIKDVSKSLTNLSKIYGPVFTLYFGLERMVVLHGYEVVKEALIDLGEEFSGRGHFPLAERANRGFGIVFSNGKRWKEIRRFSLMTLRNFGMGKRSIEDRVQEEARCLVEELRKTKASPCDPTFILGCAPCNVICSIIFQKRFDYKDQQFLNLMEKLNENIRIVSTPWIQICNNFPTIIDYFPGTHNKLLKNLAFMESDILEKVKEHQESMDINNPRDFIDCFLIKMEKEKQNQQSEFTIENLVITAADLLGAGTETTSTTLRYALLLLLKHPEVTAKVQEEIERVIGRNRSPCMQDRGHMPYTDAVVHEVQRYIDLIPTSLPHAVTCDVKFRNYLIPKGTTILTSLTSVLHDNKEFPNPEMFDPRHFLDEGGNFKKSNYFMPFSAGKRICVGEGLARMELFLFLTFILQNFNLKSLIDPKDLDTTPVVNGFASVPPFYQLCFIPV
CYP 2D6, sequence (P10635 whole entry): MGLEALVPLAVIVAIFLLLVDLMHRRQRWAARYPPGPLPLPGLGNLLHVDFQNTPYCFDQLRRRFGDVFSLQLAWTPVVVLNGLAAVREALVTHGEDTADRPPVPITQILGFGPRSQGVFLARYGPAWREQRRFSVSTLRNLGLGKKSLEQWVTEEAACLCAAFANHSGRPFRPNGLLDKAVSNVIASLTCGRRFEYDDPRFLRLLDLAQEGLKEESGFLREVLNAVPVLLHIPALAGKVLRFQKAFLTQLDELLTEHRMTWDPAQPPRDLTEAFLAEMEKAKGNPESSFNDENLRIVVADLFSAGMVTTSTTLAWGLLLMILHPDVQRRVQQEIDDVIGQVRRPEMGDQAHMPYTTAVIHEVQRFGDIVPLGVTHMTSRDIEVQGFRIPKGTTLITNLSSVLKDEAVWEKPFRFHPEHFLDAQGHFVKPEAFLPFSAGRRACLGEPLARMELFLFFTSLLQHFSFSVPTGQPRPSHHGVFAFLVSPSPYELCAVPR

For the compound `CCN1C(=O)COc2nc(-c3ccc([C@]4(N)C[C@@H](O)C4)cc3)c(-c3ccccc3)cc21` [ALM301, 6-(4-((1S,3S)-1-amino-3-hydroxycyclobutyl)phenyl)-1-ethyl-7-phenyl-1H-pyrido[2,3-b][1,4]oxazin-2(3H)-one], the “inhibition versus the additional 21 PH domain containing kinases” value in data set [1] (21 PH domain containing kinases assayed) is “did not demonstrate any inhibition”. The “selectivity against a panel of over 450 kinases” value in data set [1] (fixed concentration of 10 µM) is listed as “highly selective”. Besides, in data set [2], the kinetic solubility came out at 192 µM. Further, the IC50 in data set [3] was greater than 25000 nM; in data set [4] (full length AKT2, read-out: IC50 full length AKT2), 95 nM; in [4] (read-out: AKT IC50, AKT2), 90 nM; in [5] (read-out: AKT IC50, AKT3), 2750 nM; in [5] (read-out: IC50 AKT3) it was greater than 500 nM; in data set [6], greater than 25000 nM. In addition, the IC50 was greater than 10000 nM in data set [7] (10-point titration curve) and greater than 25000 nM in data set [8]. For the same compound, in [5] (in vitro kinase assays), the “potency versus AKT3 reduced relative to AKT1 and AKT2” value is recorded as “over 20 fold”. Besides, the inhibition at 10 µM in data set [7] (read-out: % inhibition @ 10 µM, PDK1, 10 µM fixed concentration) turned out to be 77%. Also, in [9], the “inhibition of truncated AKT2 lacking PH domain” value was “not inhibited”. Moreover, in [10] (Sprague-Dawley, rat, plasma, iv, 1 mg/kg i.v., read-out: Rat PK CL), the clearance worked out at 19 mL/min/kg. In data set [10] (Sprague-Dawley, rat, plasma, iv, 1 mg/kg i.v., read-out: Rat PK Vd), the Vd is 13 L/kg. The “Rat PK F” value in data set [10] (1 mg/kg i.v. and 5 mg/kg p.o., AUC 0-∞) is recorded as 26%. In data set [11], this compound came in with a log distribution coefficient (logD) at 4 h of 1.2.
